Test results: patent US20240018133A1, “MODULATORS OF THE INTEGRATED STRESS PATHWAY” (Calico Life Sciences LLC, priority 2019, published 2024)

The molecules below were run on ATF4 luciferase reporter (human full-length ATF4 5'-UTR fused to firefly luciferase) in HEK293T cells (assay: ATF4-Luc assay (in vitro model of VWMD): HEK293T cells carrying ATF4 luciferase reporter, tunicamycin-treated). Conditions: Homo sapiens, HEK-293T, 1 μg/mL tunicamycin, 7 hours, One Glo luminescence.
Format: cell-based
Outline: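 Reporter cells were stably generated by retroviral transduction and puromycin selection, then seeded at 30,000 cells/well. Next day, cells received 1 μg/mL tunicamycin with 200 nM test compound for 7 h, and luciferase luminescence was read with a one-step reagent. Values reported as EC50.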

Compound	EC50
Cc1cc(OCC(=O)NC23CC(NC(=O)[C@@H]4C[C@H](O)c5cc(Cl)ccc5O4)(C2)C3)ccc1F [Compound 360, (2S,4S)-6-chloro-N-{3-[2-(4-fluoro-3-methylphenoxy)acetamido]bicyclo[1.1.1]pentan-1-yl}-4-hydroxy-3,4-dihydro-2H-1-benzopyran-2-carboxamide]	10 to 50 nM
O=C(COc1ccc(F)c(F)c1)NC12CC(NC(=O)[C@H]3C[C@@H](O)c4cc(F)c(F)cc4O3)(C1)C2 [Compound 272, (2R,4R)—N-{3-[2-(3,4-difluorophenoxy)acetamido]bicyclo[1.1.1]pentan-1-yl}-6,7-difluoro-4-hydroxy-3,4-dihydro-2H-1-benzopyran-2-carboxamide]	< 10 nM
O=C(COc1ccc(Cl)c(F)c1)NC12CC(NC(=O)[C@@H]3C[C@H](O)c4cc(Cl)ccc4O3)(C1)C2 (racemic) [Compound 190, rac-(2R,4R)-6-chloro-N-{3-[2-(4-chloro-3-fluorophenoxy)acetamido]bicyclo[1.1.1]pentan-1-yl}-4-hydroxy-3,4-dihydro-2H-1-benzopyran-2-carboxamide]	< 10 nM
O=C(NC12CC(NC(=O)[C@H]3C[C@@H](O)c4cc(Cl)ccc4O3)(C1)C2)c1ccccn1 [Compound 386, N-(3-{[(2R,4R)-6-chloro-4-hydroxy-3,4-dihydro-2H-1-benzopyran-2-carbonyl]amino}bicyclo[1.1.1]pentan-1-yl)pyridine-2-carboxamide]	50 to 250 nM
O=C(COc1ccc(Cl)c(F)c1)NC12CC(NC(=O)[C@H]3C[C@H](NC4(CO)CC4)c4cc(Cl)ccc4O3)(C1)C2 (racemic) [Compound 343, rac-(2R,4S)-6-chloro-N-{3-[2-(4-chloro-3-fluorophenoxy)acetamido]bicyclo[1.1.1]pentan-1-yl}-4-{[1-(hydroxymethyl)cyclopropyl]amino}-3,4-dihydro-2H-1-benzopyran-2-carboxamide]	10 to 50 nM
O=C(NC12CCC(NC(=O)[C@H]3C[C@@H](O)c4cc(Cl)ccc4O3)(CC1)C[C@@H]2O)c1cnc(C(F)F)cn1 [Compound 353, N-[(2S)-4-{[(2R,4R)-6-chloro-4-hydroxy-3,4-dihydro-2H-1-benzopyran-2-carbonyl]amino}-2-hydroxybicyclo[2.2.2]octan-1-yl]-5-(difluoromethyl)pyrazine-2-carboxamide]	50 to 250 nM
O=C(NC12CCC(NC(=O)[C@H]3C[C@@H](O)c4cc(Cl)ccc4O3)(CC1)CC2)c1ccc(OC(F)(F)F)cn1 [Compound 361, N-(4-{[(2R,4R)-6-chloro-4-hydroxy-3,4-dihydro-2H-1-benzopyran-2-carbonyl]amino}bicyclo[2.2.2]octan-1-yl)-5-(trifluoromethoxy)pyridine-2-carboxamide]	50 to 250 nM
O=C(COc1ccc(C(F)(F)F)nc1)NC12CC(NC(=O)[C@H]3CC(=O)c4cc(Cl)ccc4O3)(C1)C2 [Compound 225, (2R)-6-chloro-4-oxo-N-[3-(2-{[6-(trifluoromethyl)pyridin-3-yl]oxy}acetamido)bicyclo[1.1.1]pentan-1-yl]-3,4-dihydro-2H-1-benzopyran-2-carboxamide]	10 to 50 nM
O=C(COc1ccc(F)c(F)c1)NC12CC(NC(=O)[C@H]3CC(=O)c4cc(F)c(F)cc4O3)(C1)C2 [Compound 271, (2R)—N-{3-[2-(3,4-difluorophenoxy)acetamido]bicyclo[1.1.1]pentan-1-yl}-6,7-difluoro-4-oxo-3,4-dihydro-2H-1-benzopyran-2-carboxamide]	10 to 50 nM
O=C(COc1ccc(Cl)c(F)c1)NC12CCC(NC(=O)[C@H]3C[C@H](O)c4cc(Cl)ccc4O3)(C1)C2 [Compound 260, (2R,4S)-6-chloro-N-{4-[2-(4-chloro-3-fluorophenoxy)acetamido]bicyclo[2.1.1]hexan-1-yl}-4-hydroxy-3,4-dihydro-2H-1-benzopyran-2-carboxamide]	< 10 nM
O=C(COc1ccc(Cl)c(F)c1)NC12CC(NC(=O)C3CC(O)c4cc(F)c(Cl)cc4O3)(C1)C2 (stereo not shown) [Compound 246, 7-chloro-N-{3-[2-(4-chloro-3-fluorophenoxy)acetamido]bicyclo[1.1.1]pentan-1-yl}-6-fluoro-4-hydroxy-3,4-dihydro-2H-1-benzopyran-2-carboxamide]	< 10 nM
CNC1CC(C(=O)NC23CC(NC(=O)COc4ccc(Cl)c(F)c4)(C2)C3)Oc2ccc(Cl)cc21 (stereo not shown) [Compound 314, 6-chloro-N-{3-[2-(4-chloro-3-fluorophenoxy)acetamido]bicyclo[1.1.1]pentan-1-yl}-4-(methylamino)-3,4-dihydro-2H-1-benzopyran-2-carboxamide]	< 10 nM
O=C(NC12CC(NC(=O)[C@H]3C[C@@H](O)c4cc(Cl)ccc4O3)(C1)C2)c1ccc(OC(F)(F)F)nc1 [Compound 377, N-(3-{[(2R,4R)-6-chloro-4-hydroxy-3,4-dihydro-2H-1-benzopyran-2-carbonyl]amino}bicyclo[1.1.1]pentan-1-yl)-6-(trifluoromethoxy)pyridine-3-carboxamide]	50 to 250 nM
O=C(COc1ccc(Cl)c(F)c1)NC12CC(NC(=O)C3C/C(=N\O)c4cc(F)ccc4O3)(C1)C2 (stereo not shown) [Compound 298, N-{3-[2-(4-chloro-3-fluorophenoxy)acetamido]bicyclo[1.1.1]pentan-1-yl}-6-fluoro-4-(hydroxyimino)-3,4-dihydro-2H-1-benzopyran-2-carboxamide]	10 to 50 nM
O=C(COc1ccc(Cl)c(F)c1)NC12CC(NC(=O)c3cc(=O)c4cc(O)ccc4o3)(C1)C2 [Compound 346, N-{3-[2-(4-chloro-3-fluorophenoxy)acetamido]bicyclo[1.1.1]pentan-1-yl}-6-hydroxy-4-oxo-4H-1-benzopyran-2-carboxamide]	500 to 2000 nM
O=C(COc1ccc(Cl)c(F)c1)NC12CC(NC(=O)[C@H]3C[C@H](O)c4cc(Cl)ccc4O3)(C1)C2 [Compound 197, (2R,4S)-6-chloro-N-{3-[2-(4-chloro-3-fluorophenoxy)acetamido]bicyclo[1.1.1]pentan-1-yl}-4-hydroxy-3,4-dihydro-2H-1-benzopyran-2-carboxamide]	< 10 nM
O=C(COc1ccc(Cl)c(Cl)c1)NC12CC(NC(=O)[C@@H]3C[C@H](O)c4cc(F)c(F)cc4O3)(C1)C2 [Compound 208, (2S,4S)—N-{3-[2-(3,4-dichlorophenoxy)acetamido]bicyclo[1.1.1]pentan-1-yl}-6,7-difluoro-4-hydroxy-3,4-dihydro-2H-1-benzopyran-2-carboxamide]	< 10 nM
Cc1cc(OCC(=O)NC23CC(NC(=O)[C@H]4C[C@@H](O)c5cc(F)c(F)cc5O4)(C2)C3)ccc1F [Compound 359, (2R,4R)-6,7-difluoro-N-{3-[2-(4-fluoro-3-methylphenoxy)acetamido]bicyclo[1.1.1]pentan-1-yl}-4-hydroxy-3,4-dihydro-2H-1-benzopyran-2-carboxamide]	< 10 nM
O=C(COc1ccc(Cl)c(F)c1)NC12CC(NC(=O)C3CC(=O)c4cc(F)ccc4O3)(C1)C2 (stereo not shown) [Compound 332, N-{3-[2-(4-chloro-3-fluorophenoxy)acetamido]bicyclo[1.1.1]pentan-1-yl}-6-fluoro-4-oxo-3,4-dihydro-2H-1-benzopyran-2-carboxamide]	< 10 nM
O=C(COc1ccc(Cl)c(F)c1)N[C@H]1C[C@H]2C[C@@H]1C[C@@H]2NC(=O)[C@H]1CC(=O)c2cc(Cl)ccc2O1 (mixture of isomers) [Compound 368, (2R)-6-chloro-N-{(1RS,2SR,4RS,5SR)-5-[2-(4-chloro-3-fluorophenoxy)acetamido]bicyclo[2.2.1]heptan-2-yl}-4-oxo-3,4-dihydro-2H-1-benzopyran-2-carboxamide]	< 10 nM
O=C(COc1ccc(Cl)c(F)c1)N[C@@H]1C[C@@H]2O[C@H]1C[C@H]2NC(=O)[C@H]1C[C@@H](O)c2cc(Cl)ccc2O1 (racemic) [Compound 370, (2R,4R)-6-chloro-N-{(1RS,2SR,4RS,5SR)-5-[2-(4-chloro-3-fluorophenoxy)acetamido]-7-oxabicyclo[2.2.1]heptan-2-yl}-4-hydroxy-3,4-dihydro-2H-1-benzopyran-2-carboxamide]	< 10 nM
O=C(COc1ccc(Cl)cn1)NC12CC(NC(=O)[C@H]3C[C@@H](O)c4cc(Cl)ccc4O3)(C1)C2 [Compound 233, (2R,4R)-6-chloro-N-(3-{2-[(5-chloropyridin-2-yl)oxy]acetamido}bicyclo[1.1.1]pentan-1-yl)-4-hydroxy-3,4-dihydro-2H-1-benzopyran-2-carboxamide]	10 to 50 nM
O=C(NC12CCC(NC(=O)[C@H]3C[C@@H](O)c4cc(Cl)ccc4O3)(C1)C2)c1ccc(OC(F)(F)F)cn1 (racemic) [Compound 293, N-(4-{[rac-(2R,4R)-6-chloro-4-hydroxy-3,4-dihydro-2H-1-benzopyran-2-carbonyl]amino}bicyclo[2.1.1]hexan-1-yl)-5-(trifluoromethoxy)pyridine-2-carboxamide]	10 to 50 nM
O=C(NC12CCC(NC(=O)[C@@H]3CC(=O)c4cc(Cl)ccc4O3)(CC1)CC2)c1ccc(OC(F)(F)F)cn1 [Compound 358, N-(4-{[(2S)-6-chloro-4-oxo-3,4-dihydro-2H-1-benzopyran-2-carbonyl]amino}bicyclo[2.2.2]octan-1-yl)-5-(trifluoromethoxy)pyridine-2-carboxamide]	> 2000 nM
CN(C(=O)c1cc(=O)c2cc(Cl)ccc2o1)C12CC(NC(=O)COc3ccc(Cl)c(F)c3)(C1)C2 [Compound 324, 6-chloro-N-{3-[2-(4-chloro-3-fluorophenoxy)acetamido]bicyclo[1.1.1]pentan-1-yl}-N-methyl-4-oxo-4H-1-benzopyran-2-carboxamide]	250 to 500 nM
